In patent US20040180035A1, “IL-15 immunoconjugates and uses thereof” (EMD Lexigen Research Center Corp., priority 1998, published 2004):

Tested on: LLC-Ep tumors
Assay: LLC-Ep subcutaneous tumor growth in C57BL/6 mice (Example 6)
Type: in vivo
Conditions: after treatment for 22 days; fusion protein 25 μg/mouse i.v., 5 daily injections; indomethacin 20 μg/mL in drinking water
Experimental: Female C57B1/6 mice were injected subcutaneously in the mid-back with LLC-Ep cells (2×10^6 cells per injection). When the tumors reached 600-1200 mm^3, the mice were sacrificed. The skin overlying the tumor was cleaned with betadine and ethanol, the tumors excised and necrotic tissue discarded. A suspension of tumor cells in phosphate buffered saline was prepared by passing viable tumor tissue through a sieve and then through a series of sequentially smaller […] needles of 22- to 30-gauge. The cells were adjusted to a concentration of 1×10^7 cells/mL and placed on ice. C57BL/6 mice then were injected with 0.1 mL of the freshly resuspended cells (1×10^6 cells/mouse) in the proximal midline of the subcutaneous dorsa.
When the tumors reached 100-200 mm^3 in size (about 7 to 14 days), the mice were randomized into four groups, 5 mice per group. Group 1 received intravenous injections of 0.2 mL of PBS daily. Group 2 received 5 daily intravenous injections of huKS-huγ1-huIL2 (25 μg/mouse) in PBS. Group 3 received indomethacin orally in drinking water (20 μg/mL, or about 60-70 μg of indomethacin consumed daily per mouse) throughout the treatment period. Group 4 received 5 daily intravenous injections of huKS-huγ1-huIL2(25 μg/mouse), and indomethacin orally in drinking water (20 μg/mL) throughout the treatment period. Tumor volumes were measured as described in Example 3. […]

Structure (SMILES): COc1ccc2c(c1)c(CC(=O)O)c(C)n2C(=O)c1ccc(Cl)cc1 [indomethacin]
- T/C ratio: 0.60
